From US20040132639A1, “Combined use of enzyme inhibitors and pharmaceutical preparations thereof for the treatment and a prophylaxis of arteriosclerosis, for the treatment and prevention of allergic reactions of type I according to the gell and coombs classification and for the treatment and prevention of dermatological …” (priority 2001, published 2004)

Columns and labels:
Type in all cases: cell-based
[1] = test system: KARPAS-299 cells; assay: Proliferation of human T cell line KARPAS-299 (WST-1 Cell-Proliferation Assay); conditions: single and simultaneous administration of I49 and APN inhibitors actinonine and probestine; 72 h; Example 8, FIG. 8
Protocol: (§1) FIG. 8: The KARPAS-299-cells were incubated for a time period of 72 hours without (control) and with the above-indicated inhibitors singly or in combination. Subsequently, there was carried out a determination of the number of metabolically active cells by using the commercially available WST-1 Cell-Proliferation Assay (Takara Inc.) in accordance with the proposals of the manufacturer.

[2] = test system: human peripheric T lymphocytes; assay: DNA synthesis of human T lymphocytes (3[H]-thymidine incorporation); conditions: 72 h incubation
Protocol: (§2) The T cells were incubated for 72 h in the presence of said inhibitors, and the DNA synthesis was determined subsequently by a measurement of the ^3[H]-thymidine incorporation, as described by Reinhold et al. (Reinhold D. et al.: Inhibitors of dipeptidyl peptidase IV induce secretion of transforming growth factor β1 in PWM-stimulated PBMNC and T cells; Immunology 1997, 91: 354-360).
(§3) FIG. 1: Synergistic and dose-dependent effect of inhibitors of DP IV (I49) and of aminopeptidase N (actinonine) on the DNA synthesis of human T lymphocytes. Human peripheric T cells were incubated for three days with the above-indicated concentrations of the inhibitors. Subsequently, ^3[H]-methyl thymidine was added to the culture medium, and after further 6 hours, the ^3[H]-thymidine amount incorporated into the DNA was measured.
as §3, with “3:” for “1:”, “prolyl oligopeptidase (Boc-Ala-Thia)” for “aminopeptidase N (actinonine)”, “human peripheric” for “human”, “Human” for “Human peripheric”
FIG. 5: Synergistic and dose-dependent effect of inhibitors of DP IV (I49) and of angiotensin-converting enzyme (captopril) on the DNA synthesis of human peripheric T lymphocytes.
Human T cells were incubated for three days with the above-indicated concentrations of the inhibitors. Subsequently, ^3[H]-methyl thymidine was added to the culture medium, and after further 6 hours, the ^3[H]-thymidine amount incorporated into the DNA was measured.

[3] = test system: PHA-activated human mononuclear cells (MNC); assay: Proliferation of PHA-activated human MNC (WST-1 Cell-Proliferation Assay); conditions: 72 h
Protocol: FIG. 7: The MNC were incubated for the time of 72 hours without (control), with mitogenic lectin phytohemagglutinine (PHA) or with PHA plus the inhibitors indicated. Subsequently, there was carried out a determination of the number of metabolically active cells by using the commercially available WST-1 Cell-Proliferation Assay (Takara Inc.) in accordance with the proposals of the manufacturer.
as §1, with “10:” for “8:”, “mononuclear cells (MNC)” for “KARPAS-299-cells”, “time” for “time period”, “in the presence of” for “without (control) and with”

[4] = test system: activated human peripheric T cells; assay: Proliferation of activated human peripheric T cells (WST-1 Cell-Proliferation Assay); conditions: single and simultaneous administration of I49 and APN inhibitors actinonine and probestine; activation by phytohemagglutinine and phorbol-12-myristate-13-acetate; 72 h; Example 9, FIG. 9
Protocol: FIG. 9: The T cells with the exception of the untreated control, were activated by an addition of phytohemagglutinine and phorbol-12-myristate-13-acetate to the culture medium and were incubated for a time of 72 hours in the presence of the above inhibitors singly or in combination. Subsequently, there was carried out a determination of the number of metabolically active cells by using the commercially available WST-1 Cell-Proliferation Assay (Takara Inc.) in accordance with the proposals of the manufacturer.

[5] = test system: human HaCaT keratinocytes; assay: DNA synthesis of human HaCaT keratinocytes (3[H]-thymidine incorporation); conditions: simultaneous administration of DP IV inhibitor I49 and APN inhibitor actinonine; 48 h; Example 13, FIG. 14
Protocol: HaCaT cells were incubated for 48 hours in presence of the above-mentioned inhibitors, and the DNA synthesis was subsequently determined by a measurement of ^3[H]-thymidine-incorporation, as described by Reinhold et al. (Reinhold D et al.: Inhibitors of dipeptidyl peptidase IV induce secretion of transforming growth factor β1 in PWM-stimulated PBMNC and T cells. Immunology 1997; 91; 354-360).
FIG. 14: Synergistic and dose-dependant effect of inhibitors of DP IV (I49) and of aminopeptidase N (actinonine) on the DNA synthesis of human HaCaT keratinocytes. The cells were incubated for 48 hours with the above-indicated concentrations of inhibitors. Subsequently, ^3[H]-methyl thymidine was added to the culture medium, and after further 6 hours, the amount of ^3[H]-thymidine incorporated into the DNA was measured.

[6] = test system: human peripheric mononuclear cells (MNC); assay: DNA synthesis of human peripheric mononuclear cells (3[H]-thymidine incorporation); conditions: 72 h incubation
Protocol: as §2, with “The MNC” for “The T cells”
as §3, with “2:” for “1:”, “APN” for “aminopeptidase N”, “mononuclear cells (MNC).” for “T lymphocytes.”, “MNC” for “peripheric T cells”
as §3, with “4: Enhanced” for “1: Synergistic”, “prolyl oligopeptidase (Boc-Ala-Thia)” for “aminopeptidase N (actinonine)”, “mononuclear cells (MNC).” for “T lymphocytes.”, “MNC” for “peripheric T cells”
as §3, with “6:” for “1:”, “angiotensin-converting enzyme (captopril)” for “aminopeptidase N (actinonine)”, “mononuclear cells (MNC).” for “T lymphocytes.”, “MNC” for “peripheric T cells”

[7] = test system: IL-4 production by pokeweed-mitogene stimulated human mononuclear cells (MNC); assay: IL-4 production by pokeweed-mitogene stimulated human MNC (IL-4 ELISA); conditions: simultaneous administration of DP IV inhibitor I49 and APN inhibitor bestatine; PWM 2 μg/ml; 48 h; culture supernatants; Example 12, FIG. 12
Protocol: The MNC were incubated for 48 hours in the presence of pokeweed-mitogene and of said inhibitors, and the concentration of IL-4 was subsequently determined in the respective culture supernatants by means of commercially available IL-4 analysis kids (ELISA) as described by Reinhold et al. (Reinhold D et al.: Inhibitors of dipeptidyl peptidase IV induce secretion of transforming growth factor β1 in PWM-stimulated PBMNC and T cells. Immunology 1997; 91; 354-360).
FIG. 12: Synergistic and dose-dependent effect of inhibitors of DP IV (I49) and of aminopeptidase N (bestatine) on the IL-4-production by human, PWM-stimulated MNC. Human peripheric MNC were incubated for 48 hours with PWM (2 μg/ml) and with the above-indicated concentrations of the inhibitors. Subsequently, the concentration of IL-4 in the respective culture supernatants were measured by means of IL-4-ELISA.

[8] = test system: pokeweed-mitogene stimulated human MNC of the peripheral blood; assay: DNA synthesis of pokeweed-mitogene stimulated human MNC (3[H]-thymidine incorporation); conditions: simultaneous administration of DP IV inhibitor I49 and APN inhibitor bestatine; PWM 2 μg/ml; 72 h; Example 11, FIG. 11
Protocol: The MNC were incubated for 72 hours in the presence of pokeweed-mitogene and of said inhibitors, and the DNA synthesis was determined subsequently by a measurement of the ^3[H]-thymidine-incorporation, is described by Reinhold et al. (Reinhold D et al.: Inhibitors of dipeptidyl peptidase IV induce secretion of transforming growth factor β1 in PWM-stimulated PBMNC and T cells. Immunology 1997; 91; 354-360).
FIG. 11: Synergistic and dose-dependent effect of inhibitors of DP IV (I49) and of aminopeptidase N (bestatine) on the DNA synthesis of human PWM-stimulated MNC. Human peripheric MNC were incubated for three days with PWM (2 μg/ml) and the above-indicated concentration of inhibitors. Subsequently, ^3[H]-methyl thymidine was added to the culture medium, and the amount of ^3[H]-thymidine incorporated into the DNA was measured after further 6 hours.

[9] = simultaneous administration of DP IV inhibitor I49 and APN inhibitor actinonine, Example 1, FIG. 1
[10] = single and simultaneous administration of I49 and actinonine, PHA, Example 7, FIG. 7
[11] = simultaneous administration of DP IV inhibitor I49 and APN inhibitor actinonine, Example 2, FIG. 2
[12] = single and simultaneous administration of I49 and X-Pro-aminopeptidase (APP) inhibitor apstatine, Example 10, FIG. 10
[13] = simultaneous administration of DP IV inhibitor I49 and prolyl oligopeptidase inhibitor Boc-Ala thiazolidide, Example 3, FIG. 3
[14] = simultaneous administration of DP IV inhibitor I49 and prolyl oligopeptidase inhibitor Boc-Ala thiazolidide, Example 4, FIG. 4
[15] = simultaneous administration of DP IV inhibitor I49 and ACE inhibitor captopril, Example 5, FIG. 5
[16] = simultaneous administration of DP IV inhibitor I49 and ACE inhibitor captopril, Example 6, FIG. 6

In the case of `CCCCC[C@H](CC(=O)NO)C(=O)N[C@H](C(=O)N1CCC[C@H]1CO)C(C)C` [Actinonine], the “inhibition of proliferation (number of metabolically active cells)” value (from here on “inhibition of proliferation”) [1] is reported as “Inhibition of the Proliferation”, the “inhibition of DNA synthesis” value [2, 9] is reported as “inhibited, in a more than additive to superadditive manner” and the “inhibition of proliferation” value [3, 10] is reported as “Inhibition of the Proliferation”. The “inhibition of proliferation” value [4] was “Inhibition of the Proliferation”, the “inhibition of DNA synthesis” value [5] was “inhibited, in a more than additive and, at lower concentrations, also in a superadditive manner” and the “inhibition of DNA synthesis” value [6, 11] was “inhibited, in a more than additive to superadditive manner”.

In the case of `C[C@H](NC(=O)[C@@H]1CCCN1C(=O)[C@@H]1CCCN1C(=O)[C@@H](O)[C@H](N)Cc1ccccc1)C(N)=O` [Apstatine], the “inhibition of proliferation” value [3, 12] is reported as “Inhibition of the Proliferation”.

For `CC(C)C[C@H](NC(=O)[C@@H](O)[C@H](N)Cc1ccccc1)C(=O)O` [Bestatine], the “inhibition of IL-4 production” value [7] was “inhibited, in a more than additive to superadditive manner” and the “inhibition of DNA synthesis” value [8] was “inhibited, in a more than additive manner”.

For `CC(NC(=O)OC(C)(C)C)C(=O)N1CCSC1` (stereo not shown) [Boc-Ala thiazolidide], the “inhibition of DNA synthesis” value [2, 13] was “inhibited, in a more than additive to superadditive manner” and the “inhibition of DNA synthesis” value [6, 14] was “inhibited, in an increased manner”.

`C[C@H](CS)C(=O)N1CCC[C@H]1C(=O)O` [Captopril] was tested, and the “inhibition of DNA synthesis” value [2, 15] was “inhibited, in a more than additive to superadditive manner” and the “inhibition of DNA synthesis” value [6, 16] was “inhibited, in a more than additive to superadditive manner”.

With `N[C@@H](CCCCNC(=O)OCc1ccc([N+](=O)[O-])cc1)C(=O)N1CCSC1` [I49, Lys[Z(NO2)]-thiazolidide] the “inhibition of proliferation” value [1] was “Inhibition of the Proliferation”, the “inhibition of IL-4 production” value [7] was “inhibited, in a more than additive to superadditive manner” and the “inhibition of DNA synthesis” value [2, 15] was “inhibited, in a more than additive to superadditive manner”. For the same compound, the “inhibition of DNA synthesis” value [2, 9] was “inhibited, in a more than additive to superadditive manner”, the “inhibition of DNA synthesis” value [2, 13] was “inhibited, in a more than additive to superadditive manner” and the “inhibition of DNA synthesis” value [8] was “inhibited, in a more than additive manner”. The “inhibition of proliferation” value [3, 12] was “Inhibition of the Proliferation”, the “inhibition of proliferation” value [3, 10] was “Inhibition of the Proliferation” and the “inhibition of proliferation” value [4] was “Inhibition of the Proliferation”. The “inhibition of DNA synthesis” value [5] was “inhibited, in a more than additive and, at lower concentrations, also in a superadditive manner”, the “inhibition of DNA synthesis” value [6, 16] was “inhibited, in a more than additive to superadditive manner” and the “inhibition of DNA synthesis” value [6, 11] was “inhibited, in a more than additive to superadditive manner”. The “inhibition of DNA synthesis” value [6, 14] was “inhibited, in an increased manner”.

For Probestine, the “inhibition of proliferation” value [1] was “Inhibition of the Proliferation” and the “inhibition of proliferation” value [4] was “Inhibition of the Proliferation”.
